From the NIST ThermoML archive (doi:10.1016/j.jct.2013.03.002)
Numbers after ± are expanded uncertainties.

Conditions: Liquid; for Critical pressure: Direct measurement; for Critical temperature: Visual observation in an unstirred cell

Critical pressure [kPa] | Critical temperature [K] | Compound
6135 ± 30 | 514.2 ± 2.4 | CCO [ethanol]
2761 ± 30 | 540 ± 2.4 | CCCCCCC [heptane]
3030 ± 30 | 507.9 ± 2.4 | CCCCCC [hexane]
5172 ± 30 | 537 ± 2.4 | CCCO [propan-1-ol]

More lines, now with the values behind:

Compound | Critical pressure [kPa] | Critical temperature [K]
COC(C)(C)C [2-methoxy-2-methylpropane] | 3448 ± 30 | 497 ± 2.4
C1CCCCC1 [cyclohexane] | 4110 ± 30 | 554.1 ± 2.4
CO [methanol] | 8128 ± 30 | 512.3 ± 2.4
